Here are results for 11 molecules from patent US4117230A, “Hydantoin derivatives as therapeutic agents” (priority 1977, dated 1978).

The target in test [1] is T1, aldose reductase (Bos taurus, UniProt P16116).
T1 construct: partially purified aldose reductose enzyme obtained from calf lens; from tissue; host or cells: calf lens
Kind of test: inhibition of aldose reductase enzyme activity (procedure of S. Hayman et al., modified by K. Sestanj et al.). Particulars: for inhibition at 100 µM: 10^-4 M; for inhibition at 100 µM / inhibition at 10 µM / inhibition at 1 µM / inhibition at 0.1 µM: calf lens enzyme, read-out: Percent inhibition of aldose reductase enzyme activity; for inhibition at 10 µM: 10^-5 M; for inhibition at 1 µM: 10^-6 M; for inhibition at 0.1 µM: 10^-7 M; for aldose reductase inhibitory activity (in words): qualitative statement. In kind it is biochemical, calf. As to the method:
(§1) The activity of the compounds of the present invention, as agents for the control of chronic diabetic complications, is determined by their ability to successfully pass one or more of the following standard biological and/or pharmacological tests, viz., (1) measuring their ability to inhibit the enzyme activity of isolated aldose reductase; (2) measuring their ability to reduce or inhibit sorbitol accumulation in the sciatic nerve of acutely sterptozotocinized (i.e., diabetic) rats; (3) measuring their ability to reverse already-elevated sorbitol levels in the sciatic nerve and lens of chronic streptozotocin-induced diabetic rats; (4) measuring their ability to prevent or inhibit galactitol formation in the lens of acutely galactosemic rats, and (5) measuring their ability to delay cataract formation and reduce the severity of lens opacities in chronic galactosemic rats.
Hayman et al., as described in the Journal of Biological Chemistry, Vol. 240, p. […] In every case, the substrate employed ws partially purified aldose reductose enzyme obtained from calf lens.

Test [2] deals with sorbitol levels in the sciatic nerve and lens of diabetic subjects. Kind of test: lowering of sorbitol levels in sciatic nerve (peripheral nerves) and lens of diabetic subjects (summary statement). In kind it is in vivo. To be noted: qualitative statement.
Test [3] relates to sorbitol accumulation in the sciatic nerve of streptozotocinized (i.e., diabetic) rats. Kind of test: inhibition of sorbitol accumulation in the sciatic nerve of acutely streptozotocinized (diabetic) rats. In kind it is in vivo, rat. Particulars: measured at 27 h, vs untreated. As to the method: as §1
The following spiro-hydantoin compounds of Preparation C and Examples I-V, VII-IX, XI-XVII, XIX-XXV, XXVII and XXX-XXXIII, respectively, were tested for their ability to reduce or inhibit sorbitol accumulation in the sciatic nerve of streptozotocinized (i.e., diabetic) rats by the procedure essentially described in U.S. Pat. No. 3,821,383. In the present study, the amount of sorbitol accumulation in the sciatic nerves was measured 27 hours after induction of diabetes. The compounds were administered orally at the dose levels indicated at 4, 8 nd 24 hours following the administration of streptozotocin. The results obtained in this manner are presented below in terms of percent inhibition (%) afforded by the test compound as compared to the case where no compound was administered (i.e., the untreated animal where sorbitol levels normally rise from approximately […]. tissue to as high as […]. tissue in the 27-hour test period): […]

Test [4] deals with galactitol levels in the lens of galactosemic subjects. Kind of test: lowering of galactitol levels in the lens of galactosemic subjects (summary statement). In kind it is in vivo. Particulars: qualitative statement.
Where [5] appears, read: 1.5 mg./kg. orally at 4, 8 and 24 h after streptozotocin.
The mark [6] stands for this setting: 5.0 mg./kg. orally at 4, 8 and 24 h after streptozotocin.
Where [7] appears, read: 10 mg./kg. orally at 4, 8 and 24 h after streptozotocin.
The mark [8] stands for this setting: 2.5 mg./kg. orally at 4, 8 and 24 h after streptozotocin.
Setting [9] is: 0.75 mg./kg. orally at 4, 8 and 24 h after streptozotocin.

`O=C1NC(=O)C2(CCc3ccccc32)N1` (stereo not drawn) [Ex. I, spiro-[imidazolidine-4,1'-indan]-2,5-dione]: in test [1], the inhibition at 100 µM is 73%, the inhibition at 10 µM turned out to be 39%, the inhibition at 1 µM is 18% and the inhibition at 0.1 µM was -11%. Further, in test [1], the “aldose reductase inhibitory activity (in words)” value is “highly potent”. In addition, the “lowering of sorbitol levels in sciatic nerve (peripheral nerves) and lens (in words)” value (“lowering of sorbitol levels” below) in test [2] is “extremely effective”. Moreover, the “Percent inhibition of sorbitol accumulation in the sciatic nerve” value (“Percent inhibition” for short) in test [3] (setting [5]) is recorded as 29%. Moreover, in test [3] (setting [6]), the “Percent inhibition” value amounted to 52%. In test [3] (setting [7]), the “Percent inhibition” value was determined as 67%. In addition, in test [4], the “lowering of galactitol levels in the lens (in words)” value (“lowering of galactitol levels” below) was “extremely effective”.

On to `O=C1NC(=O)C2(CCSc3cc(Cl)c(Cl)cc32)N1` (stereo not drawn) [Ex. XI, 6',7'-dichloro-spiro-[imidazolidine-4,4'-thiochroman]-2,5-dione], for which, in test [1], the inhibition at 100 µM came to 67%, the inhibition at 10 µM was 84%, the inhibition at 1 µM was 76% and the inhibition at 0.1 µM worked out at 69%. Also, the “aldose reductase inhibitory activity (in words)” value in test [1] is on record as “highly potent”. In test [2], the “lowering of sorbitol levels” value was “extremely effective”. Besides, the “Percent inhibition” value in test [3] (setting [6]) worked out at 59%. Also, the “lowering of galactitol levels” value in test [4] is given as “extremely effective”.

As to `COc1ccc2c(c1)C1(CCO2)NC(=O)NC1=O` (stereo not drawn) [Ex. XXI, 6-methoxy-spiro[chroman-4,4'-imidazolidine]-2',5'-dione], in test [1], the inhibition at 100 µM was found to be 100%, the inhibition at 10 µM was found to be 92%, the inhibition at 1 µM was 35% and the inhibition at 0.1 µM amounted to 7%. Moreover, the “Percent inhibition” value in test [3] (setting [8]) came out at 24%.

As to `O=C1NC(=O)C2(CCOc3cc(Cl)c(Cl)cc32)N1` (stereo not drawn) [Ex. XXIII, 6,7-dichloro-spiro-[chroman-4,4'-imidazolidine]-2',5'-dione], in test [1], the inhibition at 100 µM turned out to be 59%, the inhibition at 10 µM was 96%, the inhibition at 1 µM is 91% and the inhibition at 0.1 µM was found to be 84%. Besides, the “aldose reductase inhibitory activity (in words)” value in test [1] is on record as “highly potent”. Further, the “lowering of sorbitol levels” value in test [2] was “extremely effective”. The “Percent inhibition” value in test [3] (setting [5]) is on record as 64%. The “lowering of galactitol levels” value in test [4] is on record as “extremely effective”.

`O=C1NC(=O)C2(CCOc3c(Cl)cc(Cl)cc32)N1` (stereo not drawn) [Ex. XXIV, 6,8-dichloro-spiro-[chroman-4,4'-imidazolidine]-2',5'-dione]: in test [1], the inhibition at 100 µM worked out at 85%, the inhibition at 10 µM was 90%, the inhibition at 1 µM was 78% and the inhibition at 0.1 µM was found to be 81%. Besides, the “aldose reductase inhibitory activity (in words)” value in test [1] is recorded as “highly potent”. Moreover, the “lowering of sorbitol levels” value in test [2] is “extremely effective”. Further, the “Percent inhibition” value in test [3] (setting [9]) came out at 82%. In addition, the “lowering of galactitol levels” value in test [4] is “extremely effective”.

Take `O=C1NC(=O)C2(CCOc3ccc(Cl)cc32)N1` (stereo not drawn) [Ex. XXV, 6-chloro-spiro-[chroman-4,4'-imidazolidine]-2',5'-dione]: in test [1], the inhibition at 100 µM is 73%, the inhibition at 10 µM is 81%, the inhibition at 1 µM was 77% and the inhibition at 0.1 µM turned out to be 64%. Besides, the “aldose reductase inhibitory activity (in words)” value in test [1] is listed as “highly potent”. In addition, the “lowering of sorbitol levels” value in test [2] was “extremely effective”. Further, the “Percent inhibition” value in test [3] (setting [9]) is given as 64%. Also, the “Percent inhibition” value in test [3] (setting [5]) is 84%. Moreover, the “lowering of galactitol levels” value in test [4] was “extremely effective”.

Consider `O=C1NC(=O)C2(CCOc3c(Cl)cccc32)N1` (stereo not drawn) [Ex. XXVII, 8-chloro-spiro-[chroman-4,4'-imidazolidine]-2',5'-dione], for which, in test [1], the inhibition at 100 µM is 87%, the inhibition at 10 µM was 85%, the inhibition at 1 µM worked out at 52% and the inhibition at 0.1 µM came out at 6%. Further, in test [3] (setting [5]), the “Percent inhibition” value stood at 30%.

For `O=C1NC(=O)C2(CC[S+]([O-])c3ccc(F)cc32)N1` (stereo not drawn) [Ex. XXX, 6'-fluoro-spiro-[imidazolidine-4,4'-thiochroman]-2,5-dione-1'-oxide], in test [1], the inhibition at 100 µM stood at 87%, the inhibition at 10 µM was found to be 80%, the inhibition at 1 µM was found to be 64% and the inhibition at 0.1 µM amounted to 16%. Besides, the “Percent inhibition” value in test [3] (setting [5]) came to 35%.

Consider `O=C1NC(=O)C2(CCS(=O)(=O)c3ccc(F)cc32)N1` (stereo not drawn) [Ex. XXXI, 6'-fluoro-spiro-[imidazolidine-4,4'-thiochroman]-2,5-dione-1',1'-dioxide], for which, in test [1], the inhibition at 100 µM was 85%, the inhibition at 10 µM turned out to be 74%, the inhibition at 1 µM stood at 74% and the inhibition at 0.1 µM was 28%. For the same molecule, the “Percent inhibition” value in test [3] (setting [8]) is reported as 47%. The “Percent inhibition” value in test [3] (setting [6]) was determined as 68%.

Regarding `O=C1NC(=O)C2(CS(=O)(=O)c3ccccc32)N1` (stereo not drawn) [Ex. XXXIII, spiro-[imidazolidine-4,3'-thioindan]-2,5-dione-1,1'-dioxide], in test [1], the inhibition at 100 µM was 81%, the inhibition at 10 µM came out at 64%, the inhibition at 1 µM is 22% and the inhibition at 0.1 µM amounted to 4%. Further, the “Percent inhibition” value in test [3] (setting [6]) is recorded as 5%.

On to `O=C1NC(=O)C2(CCCc3ccccc32)N1` (stereo not drawn) [Prep. C, 3',4'-Dihydro-spiro-[imidazolidine-4,1'(2'H)-naphthalene]-2,5-dione, reference compound], for which, in test [1], the inhibition at 100 µM was 72%, the inhibition at 10 µM is 34%, the inhibition at 1 µM was 13% and the inhibition at 0.1 µM was 7%. The “Percent inhibition” value in test [3] (setting [6]) is recorded as 3%. Also, the “Percent inhibition” value in test [3] (setting [7]) is 40%.

The inhibition is the drop in the measured response relative to a control, in per cent.
